Active and inactive are the calls of the source. The calls are words filed in the database; no cut-off is given here.
Experiments:
5'-nucleotidase [1] = biological target: T1, 5'-nucleotidase (Homo sapiens, UniProt P21589); experiment: Inhibition of human soluble CD73 assessed as inhibition constant
5'-nucleotidase [2] = biological target: T1, 5'-nucleotidase; experiment: Inhibition of 5'-Nucleotidase activity in human HN-SCC cells assessed as reduction in tumor CD73 catalytic activity incubated for 45 mins in presence of Pb(NO3)2 by […] based assay; format: cell-based; settings: dose 50-250 nM
5'-nucleotidase [3] = biological target: T1, 5'-nucleotidase; experiment: Inhibition of 5'-Nucleotidase activity in human tonsils assessed as reduction in CD73 catalytic activity in tonsils incubated for 45 mins in presence of Pb(NO3)2 by […] based assay; format: tissue-based; settings: Tonsil, dose 50-250 nM
5'-nucleotidase [4] = biological target: T1, 5'-nucleotidase; experiment: Inhibition of human soluble CD73 at 0.03 to 50000 nM relative to control; settings: dose 0.03-50000 nM

T1 sequence (P21589 whole entry): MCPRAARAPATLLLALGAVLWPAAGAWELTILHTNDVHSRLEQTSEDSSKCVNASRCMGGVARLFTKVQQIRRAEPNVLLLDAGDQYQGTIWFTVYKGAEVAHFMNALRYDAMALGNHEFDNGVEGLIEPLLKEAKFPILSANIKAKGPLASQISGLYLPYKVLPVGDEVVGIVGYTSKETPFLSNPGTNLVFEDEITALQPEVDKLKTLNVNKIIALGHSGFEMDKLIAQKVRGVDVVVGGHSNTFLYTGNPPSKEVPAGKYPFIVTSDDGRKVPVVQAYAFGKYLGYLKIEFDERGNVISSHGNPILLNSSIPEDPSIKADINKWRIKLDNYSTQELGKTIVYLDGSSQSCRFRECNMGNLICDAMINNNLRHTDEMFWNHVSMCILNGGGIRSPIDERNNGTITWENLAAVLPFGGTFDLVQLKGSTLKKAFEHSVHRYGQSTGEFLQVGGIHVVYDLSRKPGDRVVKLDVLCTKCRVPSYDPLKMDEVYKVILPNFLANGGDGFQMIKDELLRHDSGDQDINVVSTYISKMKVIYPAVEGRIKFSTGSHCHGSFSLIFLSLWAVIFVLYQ

## Cn1c(=O)n([C@@H]2O[C@H](COP(=O)(O)CP(=O)(O)O)[C@@H](O)[C@H]2O)cc/c1=N/OCc1ccc(C(=O)NCCCCN)cc1
5'-nucleotidase [1]
  Ki: 1.78 nM

## Cn1c(=O)n([C@@H]2O[C@H](COP(=O)(O)CP(=O)(O)O)[C@@H](O)[C@H]2O)cc/c1=N/OCc1ccc(C(=O)NCCN)cc1
5'-nucleotidase [1]
  Ki: 0.626 nM

## Cn1c(=O)n([C@@H]2O[C@H](COP(=O)(O)CP(=O)(O)O)[C@@H](O)[C@H]2O)cc/c1=N/OCc1ccc(C(=O)NCCC(=O)O)cc1
5'-nucleotidase [1]
  Ki: 2.61 nM

## CCc1ccc(CO/N=c2/ccn([C@@H]3O[C@H](COP(=O)(O)CP(=O)(O)O)[C@@H](O)[C@H]3O)c(=O)n2C)cc1
5'-nucleotidase [1]
  Ki: 3.5 nM

## Cn1c(=O)n([C@@H]2O[C@H](COP(=O)(O)CP(=O)(O)O)[C@@H](O)[C@H]2O)cc/c1=N/OCc1ccc(C(N)=O)cc1
5'-nucleotidase [1]
  Ki: 1.76 nM

## Cn1c(=O)n([C@@H]2O[C@H](COP(=O)(O)CP(=O)(O)O)[C@@H](O)[C@H]2O)cc/c1=N/OCc1ccc(I)cc1
5'-nucleotidase [1]
  Ki: 0.436 nM
5'-nucleotidase [2]
  inhibition: Dose-Dependent Effect
5'-nucleotidase [3]
  inhibition: Dose-Dependent Effect

## Cn1c(=O)n([C@@H]2O[C@H](COP(=O)(O)CP(=O)(O)O)[C@@H](O)[C@H]2O)cc/c1=N/OCc1ccc(F)cc1
5'-nucleotidase [1]
  Ki: 1.14 nM

## Cn1c(=O)n([C@@H]2O[C@H](COP(=O)(O)CP(=O)(O)O)[C@@H](O)[C@H]2O)cc/c1=N/OCc1ccc(C(=O)O)cc1
5'-nucleotidase [1]
  Ki: 14.1 nM

## Cn1c(=O)n([C@@H]2O[C@H](COP(=O)(O)CP(=O)(O)O)[C@@H](O)[C@H]2O)cc/c1=N/OCc1ccc(C(F)(F)F)cc1
5'-nucleotidase [1]
  Ki: 1.08 nM

## Cc1ccc(CO/N=c2/ccn([C@@H]3O[C@H](COP(=O)(O)CP(=O)(O)O)[C@@H](O)[C@H]3O)c(=O)n2C)cc1
5'-nucleotidase [1]
  Ki: 0.894 nM

## Cn1c(=O)n([C@@H]2O[C@H](COP(=O)(O)CP(=O)(O)O)[C@@H](O)[C@H]2O)cc/c1=N/OCc1ccc(Br)cc1
5'-nucleotidase [1]
  Ki: 0.441 nM

## Cn1c(=O)n([C@@H]2O[C@H](COP(=O)(O)CP(=O)(O)O)[C@@H](O)[C@H]2O)cc/c1=N/C(=O)NCc1ccccc1
5'-nucleotidase [1]
  Ki: 71.5 nM

## COC(=O)c1ccc(CO/N=c2/ccn([C@@H]3O[C@H](COP(=O)(O)CP(=O)(O)O)[C@@H](O)[C@H]3O)c(=O)n2C)cc1
5'-nucleotidase [1]
  Ki: 0.848 nM

## Cn1c(=O)n([C@@H]2O[C@H](COP(=O)(O)CP(=O)(O)O)[C@@H](O)[C@H]2O)cc/c1=N/OCc1cccc(Cl)c1
5'-nucleotidase [1]
  Ki: 1.58 nM

## Nc1ncnc2c1ncn2[C@@H]1O[C@H](COP(=O)(O)CP(=O)(O)O)[C@@H](O)[C@H]1O
5'-nucleotidase [2]
  inhibition: inactive
5'-nucleotidase [3]
  inhibition: inactive

## Cn1c(=O)n([C@@H]2O[C@H](COP(=O)(O)CP(=O)(O)O)[C@@H](O)[C@H]2O)cc/c1=N/OCc1ccccc1Cl
5'-nucleotidase [1]
  Ki: 1.63 nM

## O=c1[nH]c(=O)n([C@@H]2O[C@H](COP(=O)(O)CP(=O)(O)O)[C@@H](O)[C@H]2O)cc1F
5'-nucleotidase [1]
  Ki: 2540 nM

## Cn1c(=O)n([C@H]2[C@H](O)[C@H](O)[C@]3(COP(=O)(O)CP(=O)(O)O)C[C@H]23)cc/c1=N/OCc1ccc(Cl)cc1
5'-nucleotidase [1]
  Ki: 59.2 nM

## Cn1c(=O)n([C@@H]2O[C@H](COP(=O)(O)CP(=O)(O)O)[C@@H](O)[C@H]2O)cc/c1=N/OCc1ccc(S(F)(F)(F)(F)F)cc1
5'-nucleotidase [1]
  Ki: 0.511 nM
5'-nucleotidase [2]
  inhibition: Dose-Dependent Effect
5'-nucleotidase [3]
  inhibition: Dose-Dependent Effect

## O=c1ccn([C@H]2[C@H](O)[C@H](O)[C@]3(COP(=O)(O)CP(=O)(O)O)C[C@H]23)c(=O)[nH]1
5'-nucleotidase [1]
  Ki: > 50000 nM
5'-nucleotidase [4]
  inhibition: 28%

## CCOC(=O)CCNC(=O)c1ccc(CO/N=c2/ccn([C@@H]3O[C@H](COP(=O)(O)CP(=O)(O)O)[C@@H](O)[C@H]3O)c(=O)n2C)cc1
5'-nucleotidase [1]
  Ki: 2.51 nM

## Cn1c(=O)n([C@@H]2O[C@H](COP(=O)(O)CP(=O)(O)O)[C@@H](O)[C@H]2O)cc/c1=N/OCc1cccc(C(F)(F)F)c1
5'-nucleotidase [1]
  Ki: 1.27 nM

Reference: ChEMBL document CHEMBL5038658, “Structure-Activity Relationship of 3-Methylcytidine-5'-α,β-methylenediphosphates as CD73 Inhibitors” (J Med Chem, 2022)
